This note sets out measurements from PubChem BioAssay (NCI).

Where “and” joins values, the source holds several entries; their conditions need not be identical. Equal entries are not always repeated.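 These data come from cells grown in 96-well plates and exposed to compound for 48 hours at five concentrations. GI50: concentration for 50% inhibition of growth. At the TGI there is no net growth.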

Holding throughout (test): NCI anticancer screen, dose series, 48 h
The subject of test [1] is OVCAR-5 ovarian.
Test [2] has as its system UACC-62 melanoma.
Test [3] relates to CAKI-1 renal.
In test [4] the test system is A549 NSCLC.
In test [5] the test system is OVCAR-3 ovarian.
The subject of test [6] is HOP-62 NSCLC.
In test [7] the test system is COLO 205 colon.
In test [8] the test system is UO-31 renal.
In test [9] the test system is LOX IMVI melanoma.
The test system of test [10] is RXF 393 renal.

For `O=C(CN1C(=O)c2ccccc2C1=O)C(O)CN1C(=O)c2ccccc2C1=O` (stereo not given), the TGI in test [1] was greater than 100 µM; in [2], greater than 100 µM; in test [3], greater than 100 µM; in test [4], greater than 100 µM; in [5], greater than 100 µM; in [6], 41.9 µM. Moreover, the TGI in [7], in test [8], in [9] and in test [10] was greater than 100 µM each time.

On to `N#CC1=C(N)Oc2c(sc3c(F)cccc23)C1c1ccc(F)cc1` (stereo not given), for which the GI50 in [1] is 2.95 µM; in test [2], 0.551 µM; in [3], 0.508 µM; in test [4] it was 1.05 µM; in [5], 0.363 µM; in [6] it was 0.76 µM. Further, the GI50 is 2.83 µM in test [7], 1.27 µM in test [8], 0.727 µM in test [9] and 1.07 µM in [10]. Besides, the TGI in [1] was 14.6 µM; in [2] it was 14.9 µM; in [3], 15.9 µM; in test [4], 19.1 µM; in test [5], 1.88 µM; in test [6], 19.2 µM. Besides, the TGI is 13.2 µM in [7], 12.1 µM in test [8], 12.2 µM in [9] and 6.31 µM in [10].

As to `CCCCCN(CCCCC)CC(O)c1cc2c(c3ccccc13)CCCC2` (stereo not given), the GI50 in test [1] was 11.1 µM and 13.5 µM; in test [2], 3.31 µM and 11.2 µM; in test [3], 3.44 µM and 4.29 µM; in [4], 9.87 µM and 12.3 µM; in [5], 6.22 µM and 10.5 µM; in test [6], 3.62 µM and 12.1 µM. In addition, the GI50 is 3.4 µM and 13.7 µM in [7]; 3.79 µM and 6.15 µM in test [8]; 3.71 µM and 4.93 µM in test [9]; 2.31 µM and 2.88 µM in [10]. The TGI is 23.6 µM and 31.5 µM in test [1]; 12.9 µM and 29.2 µM in test [2]; 10.9 µM and 20.2 µM in test [3]; 22.8 µM and 29.7 µM in [4]; 18.7 µM and 24.1 µM in test [5]; 12.9 µM and 25.7 µM in test [6]. Further, the TGI was 13.8 µM and 80.5 µM in test [7]; 15.6 µM and 22.1 µM in test [8]; 14.8 µM and 28.1 µM in test [9]; 6.71 µM and 7.13 µM in test [10].

Consider `S=C(Nc1ccccc1)N(Cc1ccccc1)c1ccccc1`, for which the TGI in test [1] was greater than 100 µM; in test [2] it was 70.7 µM; in test [3], 90.3 µM; in test [4], greater than 100 µM; in [5] it was greater than 100 µM; in test [6], greater than 100 µM. The TGI in test [7] was 51.8 µM; in test [8], greater than 100 µM; in [9], greater than 100 µM; in [10], 85 µM.

With `OC(CNc1ccnc2cc(Cl)ccc12)CNC1CCCCC1` (stereo not given), the GI50 in test [1] was 12.6 µM; in test [2], 2.15 µM; in test [3], 1.84 µM; in [4] it was 8.12 µM; in test [5] it was 15 µM; in test [6], 12.3 µM. Moreover, the GI50 in test [7] was 1.69 µM; in test [8] it was 2.22 µM; in [9], 4.57 µM; in test [10] it was 2.5 µM. Further, the TGI in test [1] was determined as 38.4 µM; in test [2] it was 5.2 µM; in test [3] it was 4.05 µM; in test [4] it was 21.7 µM; in test [5], 34.7 µM; in test [6], 26.3 µM. Also, the TGI was determined as 3.31 µM in [7], 11 µM in test [8], 16.7 µM in test [9] and 8.72 µM in [10].

With `NCCCCN(Cc1nc2ccccc2[nH]1)[C@H]1CCCc2cccnc21`, the GI50 in test [1] was 11.8 µM; in test [2], 17.8 µM; in test [3] it was 16.1 µM; in test [4] it was 15.2 µM; in [5] it was 15.3 µM; in [6] it was 11.4 µM. In addition, the GI50 is 7.65 µM in [7], 12 µM in [8], 12 µM in test [9] and 13.5 µM in test [10]. The TGI was greater than 100 µM in test [1]; 47.4 µM in test [2]; greater than 64.4 µM in test [3]; 44.4 µM in [4]; greater than 100 µM in [5]; greater than 100 µM in [6]. The TGI in test [7] was 26.2 µM; in [8], greater than 72.7 µM; in test [9], 38.2 µM; in [10] it was 66.8 µM.

For the molecule `O=C(N/N=C\c1ccc(N(CCCl)CCCl)cc1Cl)c1cccnc1`, the GI50 was 0.981 µM in [1]; 0.513 µM in test [2]; 7.06 µM in test [3]; 7.57 µM in [4]; 3.37 µM in test [5]; 13.6 µM in [6]. In addition, the GI50 in [7] is 8.5 µM; in [8], 14.6 µM; in test [9] it was 16.1 µM; in test [10] it was 14.2 µM. Moreover, the TGI in test [1] is 11.3 µM; in test [2], 3.92 µM; in [3], 48.2 µM; in test [4], 73.8 µM; in [5] it was 14.3 µM; in [6], greater than 78 µM. Moreover, the TGI worked out at 38.1 µM in [7], 52.9 µM in [8], 52.6 µM in [9] and 51.9 µM in [10].

As for `COc1cc(/C=C2/C(=O)NC(Cc3cc(OC)c(OC)c(C)c3OC)C(=O)N2Cc2ccccc2)c(OC)c(C)c1OC` (stereo not given), the TGI in test [1], in [2], in [3], in test [4], in [5] and in test [6] was greater than 100 µM each time. Further, the TGI in [7] was 35 µM; in test [8], greater than 100 µM; in [9], greater than 100 µM; in test [10], greater than 100 µM.
